# Measured values from EPA's ToxValDB 9.5 (doi:10.2903/j.efsa.2010.1868).
# Columns and labels:
# Anas platyrhynchos = conditions: short-term; oral; feed; mortality
# Apis mellifera = conditions: acute; duration: 48 hours; oral; unspecified; mortality
# Bibionidae = conditions: chronic/long-term; duration: 26 days; development
# Canidae = conditions: oral, Dog Other, body weight
# Colinus virginianus = conditions: reproduction developmental
# Daphnia magna = conditions: chronic/long-term; duration: 21 days; other
# Lepomis macrochirus = conditions: acute; duration: 96 hours; mortality
# Mus musculus = conditions: acute; oral; mortality
# Perdix sp. = conditions: acute; oral; unspecified; mortality
# Pimephales promelas = conditions: chronic/long-term; duration: 33 days; other
# Typhlodromus pyri = experiment: LR50; higher = less toxic; conditions: chronic/long-term; duration: 7 days; mortality
SMILES,"NOAEL (Rattus norvegicus; subchronic, duration: 90 days) [mg/kg-day]",LC50 (Anas platyrhynchos) [mg/kg-day],LD50 (Apis mellifera) [µg/piece],NOEC (Bibionidae) [mg/L],"NOAEL (Canidae; chronic, duration: 1 years) [mg/kg-day]","NOAEL (Canidae; subchronic, duration: 90 days) [mg/kg-day]",NOEC (Colinus virginianus) [mg/kg-day],NOEC (Daphnia magna) [mg/L],LC50 (Lepomis macrochirus) [µg/mL],LD50 (Mus musculus) [mg/kg],LD50 (Perdix sp.) [mg/kg],NOEC (Pimephales promelas) [mg/L],"NOAEL (Rattus norvegicus; chronic, duration: 2 years, organ weight) [mg/kg-day]","NOAEL (Rattus norvegicus; reproduction developmental, reproduction) [mg/kg-day]","LC50 (Tagia sp.; acute, duration: 14 days, mortality) [mg/kg]","NOEC (Tagia sp.; chronic/long-term, duration: 56 days) [mg/kg]",LR50 (Typhlodromus pyri) [g/ha]
"NC(Cc1ncn[nH]1)C(=O)O (configuration not stated) [1,2,4-Triazole-3-alanine]",90,,,,,,,,,,,,,,,,
OC(Cn1cncn1)(c1ccc(F)cc1)c1ccccc1F (configuration not stated) [Flutriafol],,435,> 2,1.6,5,5,35.8,0.31,33,179,616,4.8,1,13.5,> 1000,12.2,204
